Three molecules from BindingDB's records for doi:10.1021/jm020050+ (Glaxosmithkline, 2002) can be followed below.

By IC50 is commonly meant the concentration needed to halve the response being measured. A high value points to weaker potency in that assay.

Assay [1] has as its target T1, Enoyl-[acyl-carrier-protein] reductase [NADH] FabI (Haemophilus influenzae (strain ATCC 51907 / DSM 11121 / KW20 / Rd), UniProt P44432).
T1 sequence (P44432 whole entry): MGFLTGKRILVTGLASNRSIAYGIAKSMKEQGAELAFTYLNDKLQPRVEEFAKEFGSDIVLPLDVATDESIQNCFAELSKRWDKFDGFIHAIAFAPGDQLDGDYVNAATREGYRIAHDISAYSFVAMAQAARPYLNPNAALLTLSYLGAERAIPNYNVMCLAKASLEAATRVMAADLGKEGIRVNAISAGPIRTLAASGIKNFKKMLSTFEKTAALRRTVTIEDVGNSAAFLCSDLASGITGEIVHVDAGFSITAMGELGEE
Briefly: Enzyme Inhibition Assay. Conditions: 30 °C. How it is done: (§1) Assays were carried out in half-area, 96-well microtiter plates. Compounds were evaluated in assay mixtures containing components specific for each enzyme. […] The consumption of NAD(P)H was monitored for 20 min at 30 °C by following the change in absorbance at 340 nm. IC50 values were estimated from a fit of the initial velocities to a standard equation.

In assay [2] the target is T2, Enoyl-[acyl-carrier-protein] reductase [NADPH] FabI (Staphylococcus aureus (strain MRSA252), UniProt Q6GI75).
T2 sequence (Q6GI75 whole entry): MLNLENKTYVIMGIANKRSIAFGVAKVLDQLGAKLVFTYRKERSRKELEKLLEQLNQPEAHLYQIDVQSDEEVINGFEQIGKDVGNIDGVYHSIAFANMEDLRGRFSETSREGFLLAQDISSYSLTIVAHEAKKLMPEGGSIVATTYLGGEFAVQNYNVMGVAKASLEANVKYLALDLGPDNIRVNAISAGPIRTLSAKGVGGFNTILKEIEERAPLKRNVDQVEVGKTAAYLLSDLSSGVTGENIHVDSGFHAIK
Briefly: Enzyme Inhibition Assay. Conditions: pH 6.5; 30 °C. How it is done:
as §1

Molecules are shown by their SMILES. Some results are limits rather than exact numbers.

In turn, `CN(Cc1cc2ccccc2n1C)C(=O)c1ccccc1` [N-Methyl-N-(1-methyl-1H-indol-2-ylmethyl)benzamide] yielded a concentration for half-maximal inhibition (IC50) in assay [1] greater than 100 µM.
On to `CN(Cc1cc2ccccc2n1C)C(=O)/C=C/c1ccc(N)cc1` [(E)-3-(4-Aminophenyl)-N-methyl-N-(1-methyl-1H-indol-2-ylmethyl)acrylamide], for which the IC50 in assay [2] worked out at 11.2 µM.
With `COC(=O)C[C@@H]1Nc2ccc(C(=O)N(C)Cc3cc4ccccc4n3C)cc2CN(C)C1=O` [(2S)-2-[(Carbomethoxy)methyl]-N,4-dimethyl-N-(1-methyl-1H-indol-2-ylmethyl)-3-oxo-2,3,4,5-tetrahydro-1H-1,4-benzodiazepine-7-carboxamide], the IC50 is 676 µM in assay [2] and greater than 100 µM in assay [1].
